From US7098215B2, “Nitrogenous compounds and antiviral drugs containing the same” (Kureha Chemical Industry Co., Ltd., priority 2000, dated 2006) come the findings set out here.

Series [1] deals with HIV-1IIIB infected MT-4 cells. The series can be described thus: Anti-HIV activity: protection of HIV-1IIIB infected MT-4 cells, MTT method. It counts as cell-based. The note with it: MOI 0.01, culture for 5 days, concentration inhibiting 50% of cytotoxicity due to HIV infection. The protocol:
HIV-1IIIB infected MT-4 cells were added to 96-well microtiter plates (3.0×10^4/well, MOI (Multiplicity of infection): 0.01), together with test compounds at different concentrations immediately after the infection. After culture for 5 days in a carbon dioxide incubator at 37° C., the number of surviving cells was counted by MTT (tetrazolium) method (Pawels et al., J. Virol. Methods, 20, 309-321, 1988).

Another series has as its system ICR male mice. The series can be described thus: Acute toxicity in ICR mice, intraperitoneal administration. The settings on record: 3 per group, 50 mg/kg intraperitoneally, twice a day, for four days, number of dead animals after 5 days. It counts as in vivo. The protocol: Acute toxicity of the antiviral drug was examined. Three groups of 7 week-old, ICR male mice, each group consisting of 3 mice, were bred for one week. The compounds prepared in the Examples, dissolved in a physiological saline solution or distilled water, were intraperitoneally administered at a dose of 50 mg/kg, twice a day, for four days. After 5 days, the number of dead animals was examined.

Molecule `Cn1cccc1CNCCC[C@H](NC(=O)c1ccc(CNCc2ccccn2)cc1)C(=O)NCc1cccc2ccccc12` [Compound No. 5, (S)-2-(4-(N-2-picolylaminomethyl)benzoylamino)-5-((1-methylpyrrol-2-ylmethyl)amino)valeric acid 1-naphthalenemethylamide] came in with a half-maximal effective concentration (EC50) in series [1] of 0.804 µM.

The molecule `O=C(N[C@@H](CCCNC1CCCc2cccnc21)C(=O)NCc1cccc2ccccc12)c1ccc(CNCc2ncc[nH]2)s1` (stereo partly drawn) [Compound No. 16, (2S)-2-(5-(N-(imidazol-2-ylmethyl)aminomethyl)thiophene-2-carbonylamino)-5-(5,6,7,8-tetrahydroquinolin-8-yl)aminovaleric acid 1-naphthalenemethylamide] yielded an EC50 in series [1] of 0.633 µM. On the same count and under the same terms, next, `O=C(N[C@@H](CCCNCc1ncc[nH]1)C(=O)NCc1cccc2ccccc12)c1ccc(CNCc2ncc[nH]2)cc1` [Compound No. 21, (S)-2-(4-((imidazol-2-ylmethyl)aminomethyl)benzoylamino)-5-((imidazol-2-ylmethyl)amino)valeric acid 1-naphthalenemethylamide]: 0.828 µM. `Cn1cccc1CNCCC[C@H](NC(=O)c1ccc(CNCc2nccn2C)cc1)C(=O)NCc1cccc2ccccc12` [Compound No. 30, (S)-2-(4-((1-methylimidazol-2-ylmethyl)aminomethyl)benzoylamino)-5-((1-methylpyrrol-2-ylmethyl)amino)valeric acid 1-naphthalenemethylamide] gave an EC50 in series [1] of 0.662 µM.

Consider `O=C(N[C@@H](CCCNC1CCCc2cccnc21)C(=O)NCc1cccc2ccccc12)c1ccc(CNCc2ncc[nH]2)cc1` (stereo partly drawn) [Compound No. 39, (2S)-2-(4-((N-imidazol-2-ylmethyl)aminomethyl)benzoylamino)-5-(5,6,7,8-tetrahydroquinolin-8-ylamino)valeric acid 1-naphthalenemethylamide], for which the Dead mouse in the series on ICR male mice is listed as 0/3. As for `O=C(N[C@@H](CCCNC1CCCc2cccnc21)C(=O)NCc1cccc2ccccc12)c1ccc(CNCc2ncc[nH]2)c2ccccc12` (stereo partly drawn) [Compound No. 41, (2S)-2-(4-((N-imidazol-2-ylmethyl)aminomethyl)naphthoylamino)-5-(5,6,7,8-tetrahydroquinolin-8-ylamino)valeric acid 1-naphthalenemethylamide], in series [1], the EC50 stood at 0.035 µM. Moreover, the Dead mouse with ICR male mice was 0/3. For `NC(N)=NCCC[C@H](NC(=O)c1ccc(CNCc2ccccn2)cc1)C(=O)NCc1cccc2ccccc12` [Compound No. 43, N^α-(4-(N-2-picolylaminomethyl)benzoyl)-L-arginine 1-naphthalenemethylamide], the EC50 in series [1] is 0.118 µM. The molecule `N=C(N)NCCC[C@H](NC(=O)c1ccc(CNCc2ccccn2)c2ccccc12)C(=O)NCc1cccc2ccccc12` [Compound No. 44, N^α-(4-(N-2-picolylaminomethyl)naphthoyl)-L-arginine 1-naphthalenemethylamide] displayed an EC50 in series [1] of 0.126 µM.

For the molecule `C[C@H](NC(=O)[C@H](CCCNC(=N)N)NC(=O)c1ccc(CNCc2ncc[nH]2)c2ccccc12)c1cccc2ccccc12` [Compound No. 49, N^α-(4-(imidazol-2-ylmethyl)aminomethylnaphthoyl)-L-arginine(1′S)-(1′-(1-naphthyl)ethyl)amide], in series [1], the EC50 came out at 0.086 µM. In addition, in the series with ICR male mice, the Dead mouse was 0/3. For the molecule `N=C(N)NCCC[C@H](NC(=O)c1ccc(CNCc2ncc[nH]2)cc1)C(=O)NCc1cccc2ccccc12` [Compound No. 53, N^α-(4-(imidazol-2-ylmethyl)aminomethylbenzoyl)-L-arginine 1-naphthalenemethylamide], the EC50 in series [1] came out at 0.15 µM. That is a sub-micromolar value. Take `C[C@H](NC(=O)[C@H](CCCNC1CCCc2cccnc21)NC(=O)c1ccc(CNCc2ncc[nH]2)c2ccccc12)c1cccc2ccccc12` (stereo partly shown) [Compound No. 57]: in series [1], the midpoint of the response, the EC50, lay at 0.082 µM. The Dead mouse in the series on ICR male mice is recorded as 0/3. In series [1], `O=C(N[C@@H](CCCNCc1ccccn1)C(=O)NCc1cccc2ccccc12)c1ccc(CNCc2ccccn2)cc1` [Compound No. 60, (S)-2-(4-(N-2-picolylaminomethyl)benzoylamino)-5-(N-2-picolylamino)valeric acid 1-naphthalenemethylamide] displayed an EC50 of 0.158 µM. Still for that read-out and setting: to `O=C(N[C@@H](CCNCc1ccccn1)C(=O)NCc1cccc2ccccc12)c1ccc(CNCc2ccccn2)cc1` [Compound No. 61, (S)-2-(4-(N-2-picolylamino)methylbenzoylamino)-4-(N-2-picolylamino)butyric acid 1-naphthalenemethylamide] belongs 2.62 µM; to `O=C(N[C@@H](CCCNC1CCCc2cccnc21)C(=O)NCc1cccc2ccccc12)c1ccc(CNC2CCCc3cccnc32)cc1` (stereo partly drawn) [Compound No. 64, (2S)-2-(4-((5,6,7,8-tetrahydroquinolin-8-yl)aminomethyl)benzoylamino)-5-((5,6,7,8-tetrahydroquinolin-8-yl)amino)valeric acid 1-naphthalenemethylamide], 0.114 µM. In series [1], `O=C(N[C@@H](CCCNC1CCCc2cccnc21)C(=O)NCc1cccc2ccccc12)c1ccc(CNCc2ccccn2)cc1` (stereo partly drawn) [Compound No. 65, (2S)-2-(4-(N-2-picolylaminomethyl)benzoylamino)-5-((5,6,7,8-tetrahydroquinolin-8-yl)amino)valeric acid 1-naphthalenemethylamide] showed an EC50 of 0.093 µM. Also, the Dead mouse in the series on ICR male mice was 0/3.

Take `C[C@H](NC(=O)[C@H](CCCNC1CCCc2cccnc21)NC(=O)c1ccc(CNCc2ccccn2)nc1)c1cccc2ccccc12` (stereo partly drawn) [Compound No. 83, (2S)-2-(2-(N-2-picolylaminomethyl)pyridin-5-ylcarbonyl)amino-5-(5,6,7,8-tetrahydroquinolin-8-yl)aminovaleric acid (1′S)-1′-(1-naphthyl)ethylamide]: the EC50 in series [1] was found to be 0.121 µM. Turning to `C[C@H](NC(=O)[C@H](CCCNC1CCCc2cccnc21)NC(=O)c1ccc(CNCc2ccccn2)c2ccccc12)c1cccc2ccccc12` (stereo partly drawn) [Compound No. 85, (2S)-2-(4-(N-2-picolylaminomethyl)naphthoyl)amino-5-(5,6,7,8-tetrahydroquinolin-8-yl)aminovaleric acid (1′S)-1′-(1-naphthyl)ethylamide], the EC50 in series [1] was 0.029 µM. In series [1], `C[C@H](NC(=O)[C@H](CCCNC1CCCc2cccnc21)NC(=O)c1ccc(CNCc2ccccn2)cc1)c1cccc2ccccc12` (stereo partly drawn) [Compound No. 91, (2S)-2-(4-(N-2-picolylaminomethyl)benzoyl)amino-5-(5,6,7,8-tetrahydroquinolin-8-yl)aminovaleric acid (1′S)-1′-(1-naphthyl)ethylamide] had an EC50 of 0.138 µM. As for `O=C(N[C@@H](CCCNC1CCCc2cccnc21)C(=O)NCCc1c[nH]c2ccccc12)c1ccc(CNCc2ccccn2)c2ccccc12` (stereo partly drawn) [Compound No. 92, (2S)-2-(4-(N-2-picolylaminomethyl)naphthoyl)amino-5-(5,6,7,8-tetrahydroquinolin-8-yl)aminovaleric acid 2-(3-indolyl)ethylamide], the Dead mouse in the series with ICR male mice is 0/3. In series [1], `C[C@H](NC(=O)[C@H](CCCNC(=N)N)NC(=O)c1ccc(CNCc2ncc[nH]2)cc1)c1cccc2ccccc12` [Compound No. 95, N^α-4-(N-2-(imidazol-2-ylmethyl)aminomethyl)benzoyl-L-arginine (1′S)-1′-(1-naphthyl)ethylamide] came in with an EC50 of 0.175 µM.

Regarding `Cn1ccnc1CNCc1ccc(C(=O)N[C@@H](CCCNC2CCCc3cccnc32)C(=O)NCc2cccc3ccccc23)cc1` (stereo partly drawn) [Compound No. 96, (2S)-2-((1-methylimidazol-2-ylmethyl)aminomethyl)benzoylamino-5-(5,6,7,8-tetrahydroquinolyl-8-yl)aminovaleric acid 1-naphthalenemethyleneamide], a half-maximal response in series [1] (EC50) required 0.034 µM. Besides, the Dead mouse with ICR male mice is given as 0/3. `C[C@H](NC(=O)[C@H](CCCNC(=N)N)NC(=O)c1ccc(CNCc2nccn2C)c2ccccc12)c1cccc2ccccc12` [Compound No. 97, N^α-(4-((N-(1-methylimidazole-2-ylmethyl)amino)methyl)naphthalene-1-carbonyl)-L-arginine (1′S)-1′-(1-naphthyl)ethylamide]: in the series with ICR male mice, the Dead mouse is on record as 0/3. Same read-out and setting: next, `C[C@H](NC(=O)[C@H](CCCNC(=N)N)NC(=O)c1ccc(CNCc2ccccn2)c2ccccc12)c1cccc2ccccc12` [Compound No. 99, N^α-(4-(N-2-picolylaminomethyl)naphthoyl)-L-arginine (1′S)-1′-(1-naphthyl)ethylamide]: 0/3. In series [1], `C[C@H](NC(=O)[C@H](CCCNC1CCCc2cccnc21)NC(=O)c1ccc(CNCc2ncc[nH]2)cc1)c1cccc2ccccc12` (stereo partly shown) [Compound No. 106] gave an EC50 of 0.025 µM. The Dead mouse in the series with ICR male mice is 0/3. In series [1], `C[C@H](NC(=O)[C@H](CCCNC1CCCc2cccnc21)NC(=O)c1ccc(CNCc2nccn2C)cc1)c1cccc2ccccc12` (stereo partly shown) [Compound No. 107] came in with an EC50 of 0.035 µM. Also, in the series with ICR male mice, the Dead mouse is given as 0/3. On to `C[C@H](NC(=O)[C@H](CCCNC1=NCCN1)NC(=O)c1ccc(CNCc2ncc[nH]2)cc1)c1cccc2ccccc12` [Compound No. 110, (S)-2-(4-((N-imidazol-2-ylmethyl)aminomethyl)benzoyl)amino-5-(4,5-dihydroimidazol-2-yl)aminovaleric acid (1′S)-1′-(1-naphthyl)ethylamide], for which a half-maximal response in series [1] (EC50) required 0.344 µM. This counts as sub-micromolar. For `C[C@H](NC(=O)[C@H](CCCNC1=NCCCN1)NC(=O)c1ccc(CNCc2ncc[nH]2)cc1)c1cccc2ccccc12` [Compound No. 112, (S)-2-(4-((N-imidazol-2-ylmethyl)aminomethyl)benzoyl)amino-5-(3,4,5,6-tetrahydropyrimidine-2-yl)aminovaleric acid (1′S)-1′-(1-naphthyl)ethylamide], the EC50 in series [1] stood at 0.88 µM. Compared with the last molecule, the EC50 is about 2.6-fold higher.

The EC50 is the midpoint of the concentration-response curve. Read a low EC50 as an effect from little substance.
